# Source: patent US12472171B2, “Methods for treating hypercholesterolemia” (BIOGEN MA INC., priority 2020, dated 2025)
# What was measured:
# [1] = tested on: healthy volunteers; assay: Population PK/PD model (Monolix) of circulating cholesterol versus Compound 1 plasma concentration, from three phase I studies; parameters: species or system human
# Experimental: FIG. 2 is a bar graph showing predicted steady-state concentrations of circulating cholesterol levels during treatment with Compound 1 for subject administered placebo, 1 mg, 3 mg, 10 mg, 30 mg or 60 mg per day of Compound 1 at pharmacodynamic steady-state. The predicted concentrations are from simulations based on data from three phase I trials of Compound 1.
# Based on these observations, a population PK/PD model was developed using Monolix to describe circulating cholesterol concentration as a function of plasma concentration of Compound 1 and exposure. The model was developed from cholesterol data from the study described above (Study 1) as well as two additional clinical studies (Study 2 and Study 3) in healthy volunteers. In Study 2, thirty healthy volunteers received a single oral dose of Compound 1 with 6 individual participants per cohort receiving 3 mg (Cohort 1), 10 mg (Cohort 2), 30 mg (Cohort 3), 60 mg (Cohort 4), 100 mg (Cohort 5). There were also 9 participants who received placebo in the study. In Study 3, 8 healthy adult volunteers received a single dose of 30 mg of Compound 1.
# [2] = tested on: healthy volunteers; assay: 28-day once-daily dosing study in healthy volunteers (Study 1), circulating total cholesterol and oxysterols; format: in vivo, human
# Experimental: Forty-two healthy volunteers received Compound 1 QD for 28 days (or before early withdrawal), with 6 individual participants per cohort receiving 1 mg (Cohort 1), 3 mg (Cohort 2), 10 mg (Cohort 3), 30 mg (Cohort 4), 60 mg loading dose with 10 mg maintenance dosing (Cohort 5) Compound 1, 60 mg (Cohort 6), or 90 mg loading dose on Day 1 and Day 2 with 30 mg maintenance dosing (Cohort 7). There were also 14 participants who received placebo in the study; 1 participant in Cohort 4 was misdosed on Day 19 and appeared to have received at least one 30 mg dose of Compound 1. The following protocol deviations were reported for participants in Cohorts 1 through 5: they received predose water ad lib (not restricted for 1 hour before and 1 hour after dose) and a meal administered 30 minutes postdose (not 4 hours postdose). A total of 49 participants completed treatment, including 37 participants who received active treatment.
# Participants received the first dose of study treatment (Compound 1 or placebo) on Day 1 and continued to receive once-daily study treatment through Day 28. Participants remained in the clinic throughout the dosing period. Participants were discharged on Day 29 after completing all assessments.
# Blood was periodically withdrawn from each volunteer and immediately stored at −80° C. For measuring metabolite concentrations in human serum, the samples were centrifuged and the resulting supernatant was used for further analysis.
# Free oxysterols were extracted from the samples with methanol using the Biocrates Kit filter plate. The plate was loaded with an internal standard mixture beforehand. The metabolite concentrations were determined by UHPLC-MS/MS with multiple reaction monitoring (MRM) in a positive mode using a SCIEX API 5500 QTRAP® (AB SCIEX, Darmstadt, German) instrument with electrospray ionization (ESI). Data were quantitated using appropriate mass spectrometry software and imported in Biocrates Met/DQ™ software for further analysis.
# [3] = tested on: rat OPCs; assay: Sterol levels (Metabolon HD4) in rat OPC cultures treated with Compound 1; format: cell-based; settings: rat OPC culture
# Experimental: Enriched populations of oligodendrocytes from female Sprague Dawley postnatal day 2 (P2) rats were grown in culture. Briefly, the forebrain was dissected and placed in Hank's buffered salt solution (HBSS) (Life technologies). The tissue was cut into 1 mm fragments and incubated at 37° C. for 15 min in 0.01% trypsin and 10 μg/ml DNase. Dissociated cells were plated on poly-D-lysine (PDL)-coated T75 tissue culture flasks and grown at 37° C. for 10 days in Dulbecco's Modified Eagle Medium (DMEM) with 20% fetal calf serum (Life technologies). Oligodendrocyte precursors (A2B5+) were collected by shaking the flask overnight at 200 rpm at 37° C., resulting in a 95% pure population. Cultures were maintained in a defined growth medium (high glucose DMEM, 0.1% BSA, 50 ug/ml Apo-transferrin, 5 ug/ml insulin, 30 nM sodium selenite, 10 nM biotin and hydrocortisone) with 10 ng/ml fibroblast growth factor/platelet-derived growth factor (FGF/PDGF) (Peprotech) for 2-3 days. For assessing the ability of Compound 1 to promote the differentiation of rat A2B5+ progenitor cells into mature myelin basic protein positive (MBP+) myelinating oligodendrocytes, A2B5+ cells were plated into 10-cm PDL coated culture plates in FGF/PDGF free growth medium supplemented with 10 ng/ml CNTF and 15 nM T3 and were immediately treated for with Compound 1. The cell pellets were collected at 24 hours and 72 hours in culture and stored at −80° C. The cell pellets were subsequently shipped to Metabolon (Morrisville, NC, USA) and maintained at −80° C. during shipping and storage until processed. The cell pellet samples were extracted with methanol under vigorous shaking for 2 min (Glen Mills GenoGrinder 2000) to precipitate protein and dissociate small molecules bound to protein or trapped in the precipitated protein matrix, followed by centrifugation to recover chemically diverse metabolites. The resulting extract were next aliquot and analyzed on Metabolon's HD4 platform. Several types of quality control samples, including recovery standards added prior to extraction, technical replicates from a pool combined from each experimental sample, process and solvent blanks, and spiked a cocktail of QC standards, were applied during sample preparation and analysis for quality assessment and filtering failed samples.
compound,measurement,setting,value
"CC[C@H]1CC[C@@H](Oc2ccc3cc(CN4CCC(C(=O)O)CC4)ccc3c2)CC1 [Compound 1, 1-((6-(((1s,4s)-4-ethylcyclohexyl)oxy)naphthalen-2-yl)methyl)piperidine-4-carboxylic acid]",model-predicted decrease of circulating cholesterol,"[1]; 60 mg QD, steady state",approximately 35%
same,predicted time for circulating cholesterol to return to baseline after discontinuation,[1]; after discontinuation of treatment,≤ 30 days
same,steady-state concentration of Compound 1,[1]; daily dose of 60 mg,about 3 μg/mL
same,time of increase to steady-state concentrations of Compound 1 in plasma,"[1]; daily dosing, cholesterol reduction predicted over the same time frame",approximately 15 days
same,EC50 for reduction in circulating cholesterol concentration,"[1]; plasma concentration of Compound 1, population PK/PD model",about 3 μg/mL
same,circulating cholesterol concentration in the model by daily dose,[1]; population PK/PD model,reduced at all daily doses higher than 10 mg
same,accumulation of 7-dehydrocholesterol (7-DHC),[2]; healthy human volunteers,causes accumulation of 7-dehydrocholesterol (7-DHC)
same,average decrease in total cholesterol,"[2]; healthy volunteers, 60 mg dose, Study 1",approximately 20%
same,reduction in total circulating cholesterol,"[2]; healthy volunteers, QD for 28 days, FIG. 1","gradual, time- and dose-dependent reduction in total circulating cholesterol"
same,7-DHC versus vehicle control,[3]; 24 hours,8.3 folds
same,cholesterol versus vehicle control,[3]; 24 hours,0.64 folds
same,desmosterol versus vehicle control,[3]; 24 hours,0.44 folds
same,7-DHC versus vehicle control,[3]; 72 hours,12.86 folds
same,cholesterol versus vehicle control,[3]; 72 hours,insignificant change
same,desmosterol versus vehicle control,[3]; 72 hours,0.4 folds
